Source: paper PMC12164952 (Science Advances, 2025)

T1: ABCB19 (Arabidopsis thaliana, UniProt Q9LJX0)
T1 sequence (Q9LJX0 1-1252): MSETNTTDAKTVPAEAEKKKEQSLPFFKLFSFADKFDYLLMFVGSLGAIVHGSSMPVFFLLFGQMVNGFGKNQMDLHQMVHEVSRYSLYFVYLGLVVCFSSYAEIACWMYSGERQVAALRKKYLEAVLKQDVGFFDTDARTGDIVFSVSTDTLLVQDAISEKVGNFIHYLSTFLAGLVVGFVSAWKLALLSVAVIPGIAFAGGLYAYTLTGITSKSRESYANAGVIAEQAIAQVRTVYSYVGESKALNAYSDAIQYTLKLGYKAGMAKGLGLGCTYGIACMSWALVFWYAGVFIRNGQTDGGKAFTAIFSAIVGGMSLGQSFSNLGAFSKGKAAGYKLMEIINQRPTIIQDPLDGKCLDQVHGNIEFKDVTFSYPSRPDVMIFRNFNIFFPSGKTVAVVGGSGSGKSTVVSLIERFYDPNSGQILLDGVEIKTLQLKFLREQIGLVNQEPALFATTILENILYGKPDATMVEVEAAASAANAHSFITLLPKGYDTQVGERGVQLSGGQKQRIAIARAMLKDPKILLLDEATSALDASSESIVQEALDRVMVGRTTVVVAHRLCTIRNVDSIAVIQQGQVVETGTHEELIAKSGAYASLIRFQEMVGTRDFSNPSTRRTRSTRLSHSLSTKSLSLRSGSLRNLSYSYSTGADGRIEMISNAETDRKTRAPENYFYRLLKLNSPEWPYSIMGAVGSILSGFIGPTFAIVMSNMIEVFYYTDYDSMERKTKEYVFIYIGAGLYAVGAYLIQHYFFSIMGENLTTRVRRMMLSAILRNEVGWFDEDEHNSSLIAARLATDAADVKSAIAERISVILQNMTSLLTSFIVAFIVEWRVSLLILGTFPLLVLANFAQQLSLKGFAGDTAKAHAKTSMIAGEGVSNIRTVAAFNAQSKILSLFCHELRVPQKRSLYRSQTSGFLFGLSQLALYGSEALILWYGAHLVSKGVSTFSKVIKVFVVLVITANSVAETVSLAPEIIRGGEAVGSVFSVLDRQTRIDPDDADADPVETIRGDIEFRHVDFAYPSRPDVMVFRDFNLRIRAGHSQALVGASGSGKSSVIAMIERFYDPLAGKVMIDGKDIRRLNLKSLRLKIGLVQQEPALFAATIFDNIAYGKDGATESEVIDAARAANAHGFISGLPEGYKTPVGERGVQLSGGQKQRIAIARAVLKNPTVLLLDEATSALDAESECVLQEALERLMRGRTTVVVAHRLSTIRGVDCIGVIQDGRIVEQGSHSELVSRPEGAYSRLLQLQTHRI


Tests used:
ABCB19 = target: T1, ABCB19; test: cryo-EM structure at […] Å in nanodiscs; type: biochemical
purified protein = substrate: Nc1ncnc2c1ncn2[C@@H]1O[C@H](COP(=O)(O)OP(=O)(O)OP(=O)(O)O)[C@@H](O)[C@H]1O; test: purified protein; type: biochemical, Arabidopsis thaliana; conditions: Mg2+ ATP-binding sites of the NBDs

IC50 (ABCB19) [µM] | Molecule | Km (purified protein) [µM]
890 | CCN(CC)c1ccc(C(=O)c2ccccc2C(=O)O)c(O)c1 [BUM, 2-[4-(Diethylamino)-2-hydroxybenzoyl]benzoic acid] | –
– | ABCB19 (Arabidopsis thaliana) (protein) MSETNTTDAKTVPAEAEKKKEQSLPFFKLFSFADKFDYLLMFVGSLGAIVHGSSMPVFFLLFGQMVNGFGKNQMDLHQMVHEVSRYSLYFVYLGLVVCFSSYAEIACWMYSGERQVAALRKKYLEAVLKQDVGFFDTDARTGDIVFSVSTDTLLVQDAISEKVGNFIHYLSTFLAGLVVGFVSAWKLALLSVAVIPGIAFAGGLYAYTLTGITSKSRESYANAGVIAEQAIAQVRTVYSYVGESKALNAYSDAIQYTLKLGYKAGMAKGLGLGCTYGIACMSWALVFWYAGVFIRNGQTDGGKAFTAIFSAIVGGMSLGQSFSNLGAFSKGKAAGYKLMEIINQRPTIIQDPLDGKCLDQVHGNIEFKDVTFSYPSRPDVMIFRNFNIFFPSGKTVAVVGGSGSGKSTVVSLIERFYDPNSGQILLDGVEIKTLQLKFLREQIGLVNQEPALFATTILENILYGKPDATMVEVEAAASAANAHSFITLLPKGYDTQVGERGVQLSGGQKQRIAIARAMLKDPKILLLDEATSALDASSESIVQEALDRVMVGRTTVVVAHRLCTIRNVDSIAVIQQGQVVETGTHEELIAKSGAYASLIRFQEMVGTRDFSNPSTRRTRSTRLSHSLSTKSLSLRSGSLRNLSYSYSTGADGRIEMISNAETDRKTRAPENYFYRLLKLNSPEWPYSIMGAVGSILSGFIGPTFAIVMSNMIEVFYYTDYDSMERKTKEYVFIYIGAGLYAVGAYLIQHYFFSIMGENLTTRVRRMMLSAILRNEVGWFDEDEHNSSLIAARLATDAADVKSAIAERISVILQNMTSLLTSFIVAFIVEWRVSLLILGTFPLLVLANFAQQLSLKGFAGDTAKAHAKTSMIAGEGVSNIRTVAAFNAQSKILSLFCHELRVPQKRSLYRSQTSGFLFGLSQLALYGSEALILWYGAHLVSKGVSTFSKVIKVFVVLVITANSVAETVSLAPEIIRGGEAVGSVFSVLDRQTRIDPDDADADPVETIRGDIEFRHVDFAYPSRPDVMVFRDFNLRIRAGHSQALVGASGSGKSSVIAMIERFYDPLAGKVMIDGKDIRRLNLKSLRLKIGLVQQEPALFAATIFDNIAYGKDGATESEVIDAARAANAHGFISGLPEGYKTPVGERGVQLSGGQKQRIAIARAVLKNPTVLLLDEATSALDAESECVLQEALERLMRGRTTVVVAHRLSTIRGVDCIGVIQDGRIVEQGSHSELVSRPEGAYSRLLQLQTHRI | 1080
